The target of this experiment is PIKFYVE (Homo sapiens, UniProt Q9Y2I7). The experiment in a line: KINOMEscan Kinase Assay (PIKFYVE inhibitory activity).
[1] abbreviates: read-out: PIKfyve Activity (PIKfyve % inhibition).
[2] abbreviates: read-out: PIKfyve Activity (% inhibition).

pIC50: −log10 of the molar value. Read-outs that look alike come from different tables or passages of the source.

The pIC50 is the IC50 on a negative log10 scale, so that one unit is a factor of ten. A word on the inhibition: it is how much of the control response was suppressed.

PIKFYVE, sequence (Q9Y2I7 whole entry): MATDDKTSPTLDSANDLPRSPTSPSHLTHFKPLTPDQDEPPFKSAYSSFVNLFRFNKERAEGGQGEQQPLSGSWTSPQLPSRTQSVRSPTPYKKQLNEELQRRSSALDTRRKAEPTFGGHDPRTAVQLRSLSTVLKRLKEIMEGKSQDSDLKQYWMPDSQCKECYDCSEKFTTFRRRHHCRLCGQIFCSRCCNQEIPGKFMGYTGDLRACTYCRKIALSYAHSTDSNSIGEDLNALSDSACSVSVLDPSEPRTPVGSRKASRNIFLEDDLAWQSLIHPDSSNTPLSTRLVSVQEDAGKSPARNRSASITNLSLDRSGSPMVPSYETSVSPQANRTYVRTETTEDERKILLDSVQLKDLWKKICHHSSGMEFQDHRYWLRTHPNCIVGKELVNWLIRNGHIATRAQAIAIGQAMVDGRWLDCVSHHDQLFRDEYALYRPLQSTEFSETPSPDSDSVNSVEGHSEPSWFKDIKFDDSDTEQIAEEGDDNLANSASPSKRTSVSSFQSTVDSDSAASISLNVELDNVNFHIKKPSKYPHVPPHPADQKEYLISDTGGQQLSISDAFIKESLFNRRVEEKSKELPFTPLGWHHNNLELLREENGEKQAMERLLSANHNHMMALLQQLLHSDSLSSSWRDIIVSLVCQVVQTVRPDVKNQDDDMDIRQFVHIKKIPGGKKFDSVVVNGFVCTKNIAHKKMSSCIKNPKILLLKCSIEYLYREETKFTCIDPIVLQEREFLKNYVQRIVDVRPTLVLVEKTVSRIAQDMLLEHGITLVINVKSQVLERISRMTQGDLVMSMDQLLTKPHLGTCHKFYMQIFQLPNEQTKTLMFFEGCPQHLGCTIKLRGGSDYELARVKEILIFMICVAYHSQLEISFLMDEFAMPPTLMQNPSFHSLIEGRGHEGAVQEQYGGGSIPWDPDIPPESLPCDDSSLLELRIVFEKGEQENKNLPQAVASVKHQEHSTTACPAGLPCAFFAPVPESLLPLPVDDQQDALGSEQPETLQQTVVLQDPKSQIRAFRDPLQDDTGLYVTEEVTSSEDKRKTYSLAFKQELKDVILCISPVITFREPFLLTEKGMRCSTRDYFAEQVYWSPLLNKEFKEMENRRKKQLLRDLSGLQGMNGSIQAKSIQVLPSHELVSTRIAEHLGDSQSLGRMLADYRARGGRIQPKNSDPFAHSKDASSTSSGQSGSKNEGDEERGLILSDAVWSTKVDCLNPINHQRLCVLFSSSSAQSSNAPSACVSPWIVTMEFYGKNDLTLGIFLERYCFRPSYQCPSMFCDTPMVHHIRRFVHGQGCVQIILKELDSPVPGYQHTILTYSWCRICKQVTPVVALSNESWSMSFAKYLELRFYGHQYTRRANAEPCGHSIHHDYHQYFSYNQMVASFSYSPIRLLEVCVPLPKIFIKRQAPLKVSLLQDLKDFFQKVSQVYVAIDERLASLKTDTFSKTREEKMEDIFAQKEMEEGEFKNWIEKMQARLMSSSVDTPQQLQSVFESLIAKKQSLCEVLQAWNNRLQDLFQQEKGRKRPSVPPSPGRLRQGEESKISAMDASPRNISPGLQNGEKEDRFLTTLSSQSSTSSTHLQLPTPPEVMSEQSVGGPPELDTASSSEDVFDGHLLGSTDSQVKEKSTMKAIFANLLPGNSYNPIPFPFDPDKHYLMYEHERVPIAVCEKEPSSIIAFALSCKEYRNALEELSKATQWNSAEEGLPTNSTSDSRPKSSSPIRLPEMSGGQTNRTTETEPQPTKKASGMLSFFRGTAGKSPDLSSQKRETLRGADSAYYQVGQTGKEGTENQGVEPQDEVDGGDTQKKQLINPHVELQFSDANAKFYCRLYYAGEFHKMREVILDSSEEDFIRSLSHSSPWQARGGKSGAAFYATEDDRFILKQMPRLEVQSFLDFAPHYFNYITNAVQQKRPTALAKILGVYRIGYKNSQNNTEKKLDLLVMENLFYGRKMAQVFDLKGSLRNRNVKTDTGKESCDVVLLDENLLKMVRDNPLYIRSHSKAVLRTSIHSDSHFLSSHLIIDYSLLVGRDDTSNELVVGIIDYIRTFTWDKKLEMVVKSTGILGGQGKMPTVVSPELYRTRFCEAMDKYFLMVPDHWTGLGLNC

The compound `Cc1cccc(-c2ccn(-c3nc(N4CCOCC4)c4nc(CN5CCN(C(C)C)CC5)[nH]c4n3)n2)c1` [Ex. 40, 4-(8-((4-isopropylpiperazin-1-yl)methyl)-2-(3-(m-tolyl)-1H-pyrazol-1-yl)-9H-purin-6-yl)morpholine] showed a negative-log IC50 (pIC50) of 8.00 to 9.00.

Take `Cc1cccc(-c2ccn(-c3nc(N4CCOCC4)c4nc(C(=O)N5CCN(S(C)(=O)=O)CC5)[nH]c4n3)n2)c1` [Ex. 78]: under setting [1], the inhibition at 0.001 µM lay in the range of 52 to 100%.

On to `Cc1cccc(-c2ccn(-c3cc(N4CCOCC4)c4nc(CN5CCN(C(C)C)CC5)n(C)c4n3)n2)c1` [Ex. 79, 4-(2-((4-isopropylpiperazin-1-yl)methyl)-3-methyl-5-(3-(m-tolyl)-1H-pyrazol-1-yl)-3H-imidazo[4,5-b]pyridin-7-yl)morpholine], for which the inhibition at 0.001 µM under setting [1] was in the range of 52 to 100%.

Take `Cc1cccc(-c2ccn(-c3cc(N4CCOCC4)c4nc(CN5CCC(N(C)C)C(F)C5)n(C)c4n3)n2)c1` (stereo not shown) [Ex. 82, 3-fluoro-N,N-dimethyl-1-((3-methyl-7-morpholino-5-(3-(m-tolyl)-1H-pyrazol-1-yl)-3H-imidazo[4,5-b]pyridin-2-yl)methyl)piperidin-4-amine]: the inhibition at 0.001 µM under setting [1] lay within 52 to 100%.

In the case of `Cc1cccc(-c2ccn(-c3cc(N4CCOCC4)c4nc(CN5CCC(N6CCC6)C(F)C5)n(C)c4n3)n2)c1` (stereo not shown) [Ex. 83, 4-(2-((4-(azetidin-1-yl)-3-fluoropiperidin-1-yl)methyl)-3-methyl-5-(3-(m-tolyl)-1H-pyrazol-1-yl)-3H-imidazo[4,5-b]pyridin-7-yl)morpholine], the inhibition at 0.001 µM under setting [1] lay in the range of 52 to 100%.

In the case of `Cc1cccc(-c2ccn(-c3nc(N4CCOCC4)c4nc(C(=O)N5CCC(N6CCC6)C(F)C5)[nH]c4n3)n2)c1` (stereo not shown) [Ex. 85, (4-(Azetidin-1-yl)-3-fluoropiperidin-1-yl) (6-morpholino-2-(3-(m-tolyl)-1H-pyrazol-1-yl)-9H-purin-8-yl)methanone], under setting [1], the inhibition at 0.001 µM fell in the range of 52 to 100%.

With `Cc1cccc(-c2ccn(-c3nc(N4CCOCC4)c4nc(C(=O)N5CCN(C(C)C)CC5)[nH]c4n3)n2)c1` [Ex. 86], the inhibition at 0.001 µM under setting [1] lay in the range of 52 to 100%.

Consider `Cc1cccc(-c2ccn(-c3cc(N4CCOCC4)c4nc(C(=O)N5CCN(S(C)(=O)=O)CC5)[nH]c4n3)n2)c1` [Ex. 87], for which the inhibition at 0.001 µM under setting [2] was 20%.

In the case of `Cc1cccc(-c2ccn(-c3cc(N4CCOCC4)c4nc(C(=O)N5CCC(N6CCC6)C(F)C5)[nH]c4n3)n2)c1` (stereo not shown) [Ex. 89], the inhibition at 0.001 µM under setting [1] was in the range of 52 to 100%.

Turning to `Cc1cccc(-c2ccn(-c3cc(N4CCOCC4)c4sc(CN5CCN(C(C)C)CC5)c(C)c4n3)n2)c1` [Ex. 132, 4-(2-((4-Isopropylpiperazin-1-yl)methyl)-3-methyl-5-(3-(m-tolyl)-1H-pyrazol-1-yl)thieno[3,2-b]pyridin-7-yl)morpholine], the inhibition at 0.001 µM under setting [1] lay within 52 to 100%.

`Cc1cccc(-c2ccn(-c3cc(N4CCOCC4)c4sc(CO)c(C)c4n3)n2)c1` [Ex. 166, (3-Methyl-7-morpholino-5-(3-(m-tolyl)-1H-pyrazol-1-yl)thieno[3,2-b]pyridin-2-yl)methanol]: under setting [2], the inhibition at 0.001 µM turned out to be 34% and the inhibition at 0.003 µM is 14%.

Take `Cc1cccc(-c2ccn(-c3cc(N4CCOCC4)c4sc(CN5CCOCC5)c(C)c4n3)n2)c1` [Ex. 167, 4-(3-Methyl-2-(morpholinomethyl)-5-(3-(m-tolyl)-1H-pyrazol-1-yl)thieno[3,2-b]pyridin-7-yl)morpholine]: the inhibition at 0.001 µM under setting [2] came to 7%.

As to `Cc1cccc(-c2ccn(-c3cc(N4CCOCC4)c4sc(CN5CCN(S(C)(=O)=O)CC5)c(C)c4n3)n2)c1` [Ex. 169, 4-(3-Methyl-2-((4-(methylsulfonyl)piperazin-1-yl)methyl)-5-(3-(m-tolyl)-1H-pyrazol-1-yl)thieno[3,2-b]pyridin-7-yl)morpholine], the inhibition at 0.003 µM under setting [2] came out at 47%.

In the case of `Cc1cccc(-c2ccn(-c3nc(N4CCOCC4)c4nc(CN5CCC(N(C)C)C(F)C5)n(C)c4n3)n2)c1` (stereo not shown) [Ex. 171, 3-fluoro-N,N-dimethyl-1-((9-methyl-6-morpholino-2-(3-(m-tolyl)-1H-pyrazol-1-yl)-9H-purin-8-yl)methyl)piperidin-4-amine], the inhibition at 0.003 µM under setting [2] is 22%.

For the compound `Brc1ccn(-c2cc(N3CCOCC3)c3sc(CN4CCOCC4)cc3n2)n1` [Ex. 173, 4-(5-(3-Bromo-1H-pyrazol-1-yl)-2-(morpholinomethyl)thieno[3,2-b]pyridin-7-yl)morpholine], the inhibition at 0.001 µM under setting [2] was 18%.

`Cc1cccc(-c2ccn(-c3cc(N4CCOCC4)c4sc(C(=O)NC5CCOCC5)cc4n3)n2)c1` [Ex. 177, 7-Morpholino-N-(tetrahydro-2H-pyran-4-yl)-5-(3-(m-tolyl)-1H-pyrazol-1-yl)thieno[3,2-b]pyridine-2-carboxamide]: the inhibition at 0.001 µM under setting [1] was 52 to 100%.

For the compound `Cc1cccc(-c2ccn(-c3cc(N4CCOCC4)c4sc(C(=O)NC5COC5)cc4n3)n2)c1` [Ex. 179, 7-Morpholino-N-(oxetan-3-yl)-5-(3-(m-tolyl)-1H-pyrazol-1-yl)thieno[3,2-b]pyridine-2-carboxamide], under setting [1], the inhibition at 0.001 µM was 52 to 100%.

Turning to `Cc1cccc(-c2ccn(-c3nc(N4CCOCC4)c4sc(/C=C/CN5CCN(C)CC5)cc4n3)n2)c1` [Ex. 180], under setting [1], the inhibition at 0.001 µM lay within 52 to 100%.

Regarding `Cc1cccc(-c2ccn(-c3cc(N4CCOCC4)c4sc(C(=O)NC5CC5)cc4n3)n2)c1` [Ex. 183, N-cyclopropyl-7-morpholino-5-(3-(m-tolyl)-1H-pyrazol-1-yl)thieno[3,2-b]pyridine-2-carboxamide], the inhibition at 0.001 µM under setting [1] was in the range of 52 to 100%.

Regarding `CC(=O)c1cccc(-c2ccn(-c3cc(N4CCOCC4)c4sc(CN5CCOCC5)cc4n3)n2)c1` [Ex. 184, 1-(3-(1-(7-Morpholino-2-(morpholinomethyl)thieno[3,2-b]pyridin-5-yl)-1H-pyrazol-3-yl)phenyl) ethan-1-one], the inhibition at 0.005 µM under setting [2] was 10%.

As for `Cc1cccc(-c2ccn(-c3cc(N4CCOCC4)c4sc(C(=O)NC5CCN(C)CC5)cc4n3)n2)c1` [Ex. 186, N-(1-Methylpiperidin-4-yl)-7-morpholino-5-(3-(m-tolyl)-1H-pyrazol-1-yl)thieno[3,2-b]pyridine-2-carboxamide], the inhibition at 0.001 µM under setting [1] lay in the range of 52 to 100%.

With `Cc1cccc(-c2ccn(-c3cc(N4CCOCC4)c4sc(C(=O)NC5CCCN(C)C5)cc4n3)n2)c1` (stereo not shown) [Ex. 187, N-(1-Methylpiperidin-3-yl)-7-morpholino-5-(3-(m-tolyl)-1H-pyrazol-1-yl)thieno[3,2-b]pyridine-2-carboxamide], the inhibition at 0.001 µM under setting [1] fell in the range of 52 to 100%.

`Cc1cccc(-c2ccn(-c3cc(N4CCOCC4)c4sc(C(=O)NC5CCN(C)C5)cc4n3)n2)c1` (stereo not shown) [Ex. 200, N-(1-Methylpyrrolidin-3-yl)-7-morpholino-5-(3-(m-tolyl)-1H-pyrazol-1-yl)thieno[3,2-b]pyridine-2-carboxamide]: the inhibition at 0.001 µM under setting [1] lay within 52 to 100%.

For the compound `Cc1cccc(-c2ccn(-c3cc(N4CCOCC4)c4sc(C(=O)NC5CN(C)C5)cc4n3)n2)c1` [Ex. 201, N-(1-Methylazetidin-3-yl)-7-morpholino-5-(3-(m-tolyl)-1H-pyrazol-1-yl)thieno[3,2-b]pyridine-2-carboxamide], the inhibition at 0.001 µM under setting [1] lay within 52 to 100%.

As for `Cc1cccc(-c2ccn(-c3nc(N4CCOCC4)c4sc(NCCN5CCOCC5)nc4n3)n2)c1` [Ex. 202, 7-Morpholino-N-(2-morpholinoethyl)-5-(3-(m-tolyl)-1H-pyrazol-1-yl)thiazolo-[4,5-d]pyrimidin-2-amine], the inhibition at 0.001 µM under setting [1] fell in the range of 52 to 100%.

For `Cc1cccc(-c2ccn(-c3nc(N4CCOCC4)c4sc(C#CCN(C)C)cc4n3)n2)c1` [Ex. 207, N,N-Dimethyl-3-(4-morpholino-2-(3-(m-tolyl)-1H-pyrazol-1-yl)thieno[3,2-d]pyrimidin-6-yl)prop-2-yn-1-amine], under setting [2], the inhibition at 0.001 µM was 35%.

For the compound `Cc1cccc(-c2ccn(-c3nc(N4CCOCC4)c4sc(N(C)C5CCN(C)CC5)nc4n3)n2)c1` [Ex. 208, N-Methyl-N-(1-methylpiperidin-4-yl)-7-morpholino-5-(3-(m-tolyl)-1H-pyrazol-1-yl)thiazolo[4,5-d]pyrimidin-2-amine], the inhibition at 0.001 µM under setting [1] fell in the range of 52 to 100%.

Regarding `Cc1cccc(-c2ccn(-c3nc(N4CCOCC4)c4sc(NCCS(C)(=O)=O)nc4n3)n2)c1` [Ex. 209, N-(2-(Methylsulfonyl)ethyl)-7-morpholino-5-(3-(m-tolyl)-1H-pyrazol-1-yl)thiazolo[4,5-d]pyrimidin-2-amine], under setting [1], the inhibition at 0.001 µM was 52 to 100%.

`Cc1cccc(-c2ccn(-c3cc(N4CCOCC4)c4sc(C(=O)N5CCN(C)CC5)cc4n3)n2)c1` [Ex. 217, (4-Methylpiperazin-1-yl) (7-morpholino-5-(3-(m-tolyl)-1H-pyrazol-1-yl)thieno[3,2-b]pyridin-2-yl)methanone]: under setting [1], the inhibition at 0.001 µM was 52 to 100%.

In the case of `Cc1cccc(-c2ccn(-c3cc(N4CCOCC4)c4sc(NC(=O)C5COC5)cc4n3)n2)c1` [Ex. 232], the inhibition at 0.001 µM under setting [2] was determined as 24%.

With `Cc1cccc(-c2ccn(-c3cc(N4CCOCC4)c4sc(NC(=O)C5CCN(C)CC5)cc4n3)n2)c1` [Ex. 235], the inhibition at 0.001 µM under setting [1] lay in the range of 52 to 100%.

Take `Cc1cccc(-c2ccn(-c3cc(N4CCOCC4)c4sc(C(=O)N5CCC(N6CCC6)C(F)C5)cc4n3)n2)c1` (stereo not shown) [Ex. 236]: under setting [1], the inhibition at 0.001 µM is 52 to 100%.

Consider `Cc1cccc(-c2ccn(-c3cc(N4CCOCC4)c4sc(C(=O)N5CCC(N6CC(F)C6)CC5)cc4n3)n2)c1` [Ex. 237], for which, under setting [1], the inhibition at 0.001 µM is 52 to 100%.

With `Cc1cccc(-c2ccn(-c3cc(N4CCOCC4)c4sc(C(=O)N5CCC(N6CC(F)C6)C5)cc4n3)n2)c1` (stereo not shown) [Ex. 238], the inhibition at 0.001 µM under setting [1] lay in the range of 52 to 100%.

Regarding `Cc1cccc(-c2ccn(-c3cc(N4CCOCC4)c4sc(C(=O)N5CC(F)C(N6CCC6)C5)cc4n3)n2)c1` (stereo not shown) [Ex. 239], under setting [1], the inhibition at 0.001 µM was in the range of 52 to 100%.

Turning to `Cc1cccc(-c2ccn(-c3cc(N4CCOCC4)c4sc(C(=O)N5CCN(S(C)(=O)=O)CC5)cc4n3)n2)c1` [Ex. 240], the inhibition at 0.001 µM under setting [1] lay in the range of 52 to 100%.

As for `Cc1cccc(-c2nc(-c3nc(N4CCOCC4)c4sc(CN5CCN(S(C)(=O)=O)CC5)cc4n3)co2)c1` [Ex. 241], under setting [2], the inhibition at 0.003 µM is 0%.

In the case of `Cc1cccc(-c2nc(-c3cc(N4CCOCC4)c4sc(CN5CCN(S(C)(=O)=O)CC5)cc4n3)co2)c1` [Ex. 242], the inhibition at 0.003 µM under setting [2] stood at 8%.

In the case of `Cc1cccc(-c2nc(-c3nc(N4CCOCC4)c4sc(CN5CCN(S(C)(=O)=O)CC5)cc4n3)cs2)c1` [Ex. 243], the inhibition at 0.001 µM under setting [1] fell in the range of 52 to 100%.

The record behind these values is patent publication US20260297108A1, “NOVEL INHIBITORS OF PIKFYVE AND METHODS USING SAME” (priority 2023, published 2026).
